Data from patent US20020099206A1, “Cephalosporin crystals and process for their preparation” (priority 1997, published 2002).

Assay: stability of Compound (1a) under crystallization conditions (Comparative Test Examples 1 and 2)
Type: physicochemical
Procedure: Subsequently, stability of Compound (1a) under crystallization conditions was tested. The results are shown in the following Comparative Test Examples 1 and 2.
200 mg of oily 7-phenylacetamido-3-chloromethyl-cephem-4-carboxylic acid p-methoxybenzyl ester was dissolved in 0.2 ml of dimethylformamide. The solution was pored into 1 ml of methanol precooled to 3° C. to precipitate crystals. The mixture was stirred at 3 to 5° C. for 20 hours. Then, an ethyl acetate/water mixture was added to dissolve the crystals, and the solution was subjected to extraction. The organic layer was dried over sodium sulfate. The resulting solution was filtered, and the filtrate was concentrated under reduced pressure. The concentrate was purified by silica gel chromatography (Wako gel C-200, benzene/ethyl acetate=4/1), giving 197 mg of oily 7-phenylacetamido-3-chloromethyl-cephem-4-carboxylic-acid-p-methoxybenzyl ester (yield: 99%).
200 mg of oily 7-phenylacetamido-3-chloromethyl-cephem-4-carboxylic acid p-methoxybenzyl ester was dissolved in 0.2 ml of dimethylformamide. The solution was pored into 1 ml of methanol to precipitate crystals. The mixture was stirred at 30 to 35° C. for 20 hours. Then, an ethyl acetate/water mixture was added to dissolve the crystals, and the solution was subjected to extraction. The organic layer was dried over sodium sulfate. The resulting solution was filtered, and the filtrate was concentrated under reduced pressure.
For example, thin-layer chromatography of the obtained product (conditions: Merk Pre-Coated TLC Plates SILICA GEL 60F254 (Merk); benzene/ethyl acetate=4/1) developed color in zones corresponding to 7-phenylacetamide-3-chloromethyl-cephem-4-carboxylic acid p-methoxybenzyl ester (Compound (1a)) (Rf=0.46), 7-phenylacetamide-3-methoxymethyl-cephem-4-carboxylic acid p-methoxybenzyl ester (Compound A) (Rf=0.33) and decomposition product of Compound (1a) (Rf≈0, in the vicinity of the placing point). […]

[1] = dimethylformamide solution poured into uncooled methanol, stirred at 30 to 35° C. for 20 hours

COc1ccc(COC(=O)C2=C(CCl)CS[C@@H]3C(NC(=O)Cc4ccccc4)C(=O)N23)cc1 (stereo partly drawn) [Compound (1a), 7-phenylacetamido-3-chloromethyl-cephem-4-carboxylic acid p-methoxybenzyl ester]
7-phenylacetamido-3-chloromethyl-cephem-4-carboxylic acid p-methoxybenzyl ester recovered (yield) (dimethylformamide solution poured into methanol precooled to 3° C., stirred at 3 to 5° C. for 20 hours): 99% | Compound (1a) recovered (yield) [1]: 71% | highly polar component Compound A formed (yield) [1]: 9%
